Experimental data from ChEMBL document CHEMBL3046735, “11-Chloro-3-methyl-3H-imidazo[4,5-a]acridine (CMIA) as a potent and selective antimicrobial agent against clinical isolates of highly antibiotic-resistant Acinetobacter baumannii” (Med Chem Res, 2012).
Converted amounts (≈) assume the structure as drawn.

Assays:
[1] = tested on: Staphylococcus aureus; experiment: Bactericidal activity against Staphylococcus aureus wound isolate after 24 hr by NCCLS dilution tube method; format: functional
[2] = tested on: Escherichia coli; experiment: Bactericidal activity against Escherichia coli urine isolate after 24 hr by NCCLS dilution tube method; format: functional
[3] = tested on: Acinetobacter baumannii; experiment: Bactericidal activity against multidrug-resistant Acinetobacter baumannii urine isolate after 24 hr by NCCLS dilution tube method; format: functional
[4] = tested on: Klebsiella pneumoniae; experiment: Bactericidal activity against Klebsiella pneumoniae wound isolate after 24 hr by NCCLS dilution tube method; format: functional
[5] = tested on: Klebsiella pneumoniae; experiment: Bactericidal activity against Klebsiella pneumoniae urine isolate after 24 hr by NCCLS dilution tube method; format: functional
[6] = tested on: Pseudomonas aeruginosa; experiment: Bactericidal activity against Pseudomonas aeruginosa wound isolate after 24 hr by NCCLS dilution tube method; format: functional
[7] = tested on: Pseudomonas aeruginosa; experiment: Bactericidal activity against Pseudomonas aeruginosa urine isolate after 24 hr by NCCLS dilution tube method; format: functional
[8] = tested on: Staphylococcus epidermidis; experiment: Bactericidal activity against Staphylococcus epidermidis eye isolate after 24 hr by NCCLS dilution tube method; format: functional
[9] = tested on: Staphylococcus aureus; experiment: Bactericidal activity against Staphylococcus aureus urine isolate after 24 hr by NCCLS dilution tube method; format: functional
[10] = tested on: Escherichia coli; experiment: Bactericidal activity against Escherichia coli bronchi isolate after 24 hr by NCCLS dilution tube method; format: functional
[11] = tested on: Acinetobacter baumannii; experiment: Bactericidal activity against multidrug-resistant Acinetobacter baumannii wound isolate after 24 hr by NCCLS dilution tube method; format: functional
[12] = tested on: Acinetobacter baumannii; experiment: Bactericidal activity against multidrug-resistant Acinetobacter baumannii bronchi isolate after 24 hr by NCCLS dilution tube method; format: functional
[13] = tested on: Staphylococcus saprophyticus; experiment: Bactericidal activity against Staphylococcus saprophyticus bronchi isolate after 24 hr by NCCLS dilution tube method; format: functional
[14] = tested on: Klebsiella pneumoniae; experiment: Bactericidal activity against Klebsiella pneumoniae PTCC 1053 after 24 hr by NCCLS dilution tube method; format: functional; conditions: PTCC 1053, 24 h
[15] = tested on: Escherichia coli; experiment: Bactericidal activity against Escherichia coli PTCC 1338 after 24 hr by NCCLS dilution tube method; format: functional; conditions: PTCC 1338, 24 h
[16] = tested on: Pseudomonas aeruginosa; experiment: Bactericidal activity against Pseudomonas aeruginosa PTCC 1431 after 24 hr by NCCLS dilution tube method; format: functional; conditions: PTCC 1431, 24 h
[17] = tested on: Staphylococcus aureus; experiment: Bactericidal activity against Staphylococcus aureus PTCC 1074 after 24 hr by NCCLS dilution tube method; format: functional; conditions: PTCC 1074, 24 h
[18] = Octanol-water partition coefficient, log D of the compound at pH 7.4 after 6 hr by shake flask method; format: physicochemical

CN(C)[C@@H]1C(O)=C(C(N)=O)C(=O)[C@@]2(O)C(O)=C3C(=O)c4c(O)cccc4[C@@](C)(O)[C@H]3C[C@@H]12 [TETRACYCLINE]
MBC [1]: 12.5 µg/mL (≈ 28.1 µM)
MBC [2]: 20.4 µg/mL (≈ 45.9 µM)
MBC [3]: 87.5 µg/mL (≈ 197 µM)
MBC [4]: 30.3 µg/mL (≈ 68.2 µM)
MBC [5]: 26 µg/mL (≈ 58.5 µM)
MBC [6]: 54.7 µg/mL (≈ 123 µM)
MBC [7]: 21.2 µg/mL (≈ 47.7 µM)
MBC [8]: 81.2 µg/mL (≈ 183 µM)
MBC [9]: 26.3 µg/mL (≈ 59.2 µM)

CC1(C)S[C@@H]2[C@H](NC(=O)[C@H](N)c3ccc(O)cc3)C(=O)N2[C@H]1C(=O)O [AMOXICILLIN]
MBC [1]: > 100 µg/mL
MBC [10]: > 100 µg/mL
MBC [2]: 76.2 µg/mL (≈ 209 µM)
MBC [3]: > 100 µg/mL
MBC [11]: > 100 µg/mL
MBC [12]: > 100 µg/mL
MBC [4]: > 100 µg/mL
MBC [5]: > 100 µg/mL
MBC [6]: > 100 µg/mL
MBC [7]: > 100 µg/mL
MBC [13]: > 100 µg/mL
MBC [8]: > 100 µg/mL
MBC [9]: > 100 µg/mL

C=CC1=C(C(=O)O)N2C(=O)[C@@H](NC(=O)/C(=N\OCC(=O)O)c3csc(N)n3)[C@H]2SC1 [CEFIXIME]
MBC [1]: 33.1 µg/mL (≈ 73 µM)
MBC [10]: 23.1 µg/mL (≈ 50.9 µM)
MBC [2]: 12.1 µg/mL (≈ 26.7 µM)
MBC [3]: 75 µg/mL (≈ 165 µM)
MBC [11]: 82.8 µg/mL (≈ 183 µM)
MBC [12]: 87.5 µg/mL (≈ 193 µM)
MBC [4]: 44.6 µg/mL (≈ 98.4 µM)
MBC [5]: 20.8 µg/mL (≈ 45.9 µM)
MBC [6]: 96.9 µg/mL (≈ 214 µM)
MBC [7]: 20 µg/mL (≈ 44.1 µM)
MBC [13]: 24.5 µg/mL (≈ 54 µM)
MBC [8]: 28.7 µg/mL (≈ 63.3 µM)
MBC [9]: 45.2 µg/mL (≈ 99.7 µM)

CC(C)(O/N=C(\C(=O)N[C@@H]1C(=O)N2C(C(=O)[O-])=C(C[n+]3ccccc3)CS[C@H]12)c1csc(N)n1)C(=O)O [CEFTAZIDIME]
MBC [1]: 63.5 µg/mL (≈ 116 µM)
MBC [10]: 45.4 µg/mL (≈ 83.1 µM)
MBC [2]: 14.4 µg/mL (≈ 26.3 µM)
MBC [3]: 93.7 µg/mL (≈ 171 µM)
MBC [11]: 91.7 µg/mL (≈ 168 µM)
MBC [12]: 90.6 µg/mL (≈ 166 µM)
MBC [4]: 92.8 µg/mL (≈ 170 µM)
MBC [5]: 22.9 µg/mL (≈ 41.9 µM)
MBC [6]: 90.6 µg/mL (≈ 166 µM)
MBC [7]: 43.8 µg/mL (≈ 80.1 µM)
MBC [13]: 82.4 µg/mL (≈ 151 µM)
MBC [8]: 73.7 µg/mL (≈ 135 µM)
MBC [9]: 80.2 µg/mL (≈ 147 µM)

NC[C@H]1O[C@H](O[C@H]2[C@H](O)[C@@H](O[C@H]3O[C@H](CO)[C@@H](O)[C@H](N)[C@H]3O)[C@H](N)C[C@@H]2N)[C@H](N)C[C@@H]1O [TOBRAMYCIN]
MBC [1]: 17.3 µg/mL (≈ 37 µM)
MBC [10]: 74 µg/mL (≈ 158 µM)
MBC [2]: 64.3 µg/mL (≈ 138 µM)
MBC [3]: 78.1 µg/mL (≈ 167 µM)
MBC [11]: 83.3 µg/mL (≈ 178 µM)
MBC [12]: 68 µg/mL (≈ 145 µM)
MBC [4]: 24.1 µg/mL (≈ 51.5 µM)
MBC [5]: 28.1 µg/mL (≈ 60.1 µM)
MBC [6]: 26.5 µg/mL (≈ 56.7 µM)
MBC [7]: 13.7 µg/mL (≈ 29.3 µM)
MBC [13]: 25 µg/mL (≈ 53.5 µM)
MBC [8]: 50 µg/mL (≈ 107 µM)
MBC [9]: 11.8 µg/mL (≈ 25.2 µM)

CCn1cc(C(=O)O)c(=O)c2ccc(C)nc21 [NALIDIXIC ACID]
MBC [1]: 81.6 µg/mL (≈ 351 µM)
MBC [10]: 22.7 µg/mL (≈ 97.7 µM)
MBC [2]: 24 µg/mL (≈ 103 µM)
MBC [3]: > 100 µg/mL
MBC [11]: > 100 µg/mL
MBC [12]: > 100 µg/mL
MBC [4]: 25.9 µg/mL (≈ 112 µM)
MBC [5]: 29.1 µg/mL (≈ 125 µM)
MBC [6]: > 100 µg/mL
MBC [7]: > 100 µg/mL
MBC [13]: > 100 µg/mL
MBC [8]: > 100 µg/mL
MBC [9]: > 100 µg/mL

CCCn1cnc2c3c(Cl)c4ccccc4nc3ccc21
MBC [14]: 25 µg/mL (≈ 84.5 µM)
MBC [15]: 25 µg/mL (≈ 84.5 µM)
MBC [16]: > 100 µg/mL
MBC [17]: 6.25 µg/mL (≈ 21.1 µM)
logD at 6 h [18]: 1.09

Cn1cnc2c3c(Cl)c4ccccc4nc3ccc21
MBC [1]: 72.3 µg/mL (≈ 270 µM)
MBC [10]: 89.3 µg/mL (≈ 334 µM)
MBC [2]: 56.4 µg/mL (≈ 211 µM)
MBC [3]: 10.9 µg/mL (≈ 40.7 µM)
MBC [11]: 2 µg/mL (≈ 7.47 µM)
MBC [12]: 4.7 µg/mL (≈ 17.6 µM)
MBC [14]: 12.5 µg/mL (≈ 46.7 µM)
MBC [15]: 6.25 µg/mL (≈ 23.3 µM)
MBC [16]: 75 µg/mL (≈ 280 µM)
MBC [17]: 3.1 µg/mL (≈ 11.6 µM)
logD at 6 h [18]: 0.52
MBC [4]: 85.7 µg/mL (≈ 320 µM)
MBC [5]: 47.9 µg/mL (≈ 179 µM)
MBC [6]: 75 µg/mL (≈ 280 µM)
MBC [7]: 85 µg/mL (≈ 317 µM)
MBC [13]: 93.7 µg/mL (≈ 350 µM)
MBC [8]: 73.7 µg/mL (≈ 275 µM)
MBC [9]: 91 µg/mL (≈ 340 µM)

CCn1cc(C(=O)O)c(=O)c2cc(F)c(N3CCNCC3)cc21 [NORFLOXACIN]
MBC [1]: 9.8 µg/mL (≈ 30.7 µM)
MBC [10]: 12.2 µg/mL (≈ 38.2 µM)
MBC [2]: 7.3 µg/mL (≈ 22.9 µM)
MBC [3]: 62.5 µg/mL (≈ 196 µM)
MBC [11]: 41.7 µg/mL (≈ 131 µM)
MBC [12]: 37.5 µg/mL (≈ 117 µM)
MBC [4]: 50 µg/mL (≈ 157 µM)
MBC [5]: 11.5 µg/mL (≈ 36 µM)
MBC [6]: 25.8 µg/mL (≈ 80.8 µM)
MBC [7]: 13.7 µg/mL (≈ 42.9 µM)
MBC [13]: 50 µg/mL (≈ 157 µM)
MBC [8]: 75 µg/mL (≈ 235 µM)
MBC [9]: 11.5 µg/mL (≈ 36 µM)

CCCCCn1cnc2c3c(Cl)c4ccccc4nc3ccc21
MBC [14]: 25 µg/mL (≈ 77.2 µM)
MBC [15]: 50 µg/mL (≈ 154 µM)
MBC [16]: > 100 µg/mL
MBC [17]: 12.5 µg/mL (≈ 38.6 µM)
logD at 6 h [18]: 1.48

NC[C@H]1O[C@H](O[C@H]2[C@H](O)[C@@H](O[C@H]3O[C@H](CO)[C@@H](O)[C@H](N)[C@H]3O)[C@H](N)C[C@@H]2N)[C@H](O)[C@@H](O)[C@@H]1O [KANAMYCIN]
MBC [1]: 17.9 µg/mL (≈ 36.9 µM)
MBC [10]: 85.5 µg/mL (≈ 176 µM)
MBC [2]: 84.4 µg/mL (≈ 174 µM)
MBC [3]: > 100 µg/mL
MBC [11]: > 100 µg/mL
MBC [12]: > 100 µg/mL
MBC [4]: 16 µg/mL (≈ 33 µM)
MBC [5]: 12.5 µg/mL (≈ 25.8 µM)
MBC [6]: 48.4 µg/mL (≈ 99.9 µM)
MBC [7]: 47.9 µg/mL (≈ 98.9 µM)
MBC [13]: 40 µg/mL (≈ 82.6 µM)
MBC [8]: 25 µg/mL (≈ 51.6 µM)
MBC [9]: 55.1 µg/mL (≈ 114 µM)

CO/N=C(\C(=O)N[C@@H]1C(=O)N2C(C(=O)O)=C(COC(C)=O)CS[C@H]12)c1csc(N)n1 [CEFOTAXIME]
MBC [1]: 12.7 µg/mL (≈ 27.9 µM)
MBC [10]: 24.5 µg/mL (≈ 53.8 µM)
MBC [2]: 17.3 µg/mL (≈ 38 µM)
MBC [3]: 90.6 µg/mL (≈ 199 µM)
MBC [11]: 95.8 µg/mL (≈ 210 µM)
MBC [12]: 96.9 µg/mL (≈ 213 µM)
MBC [4]: 51.8 µg/mL (≈ 114 µM)
MBC [5]: 25 µg/mL (≈ 54.9 µM)
MBC [6]: 81.2 µg/mL (≈ 178 µM)
MBC [7]: 16.3 µg/mL (≈ 35.8 µM)
MBC [13]: 95 µg/mL (≈ 209 µM)
MBC [8]: 75 µg/mL (≈ 165 µM)
MBC [9]: 77.2 µg/mL (≈ 169 µM)
